The values that follow come from PubChem BioAssay (NCI).

Among the test systems are BT-549 breast; DU-145 prostate; HL-60(TB) leukemia; MOLT-4 leukemia; NCI-H226 lung; NCI-H522 lung; SNB-75 CNS; UACC-257 melanoma; UACC-62 melanoma; EKVX NSCLC.
Common to all, as to assay: NCI anticancer screen, dose series, 48 h

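Grown in 96-well plates, cells were treated for 48 hours with each compound at five concentrations. Insufficient inhibition: endpoint recorded as highest concentration tested. Abbreviation: GI50, concentration required for 50% inhibition of growth. TGI marks complete inhibition of growth.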 Where only a bound is given, the exact number is not on record here.

For `Nc1nc(N)c2c(n1)NC(c1sc(Cl)nc1Cl)CC(c1ccc3c(c1)OCO3)=N2` (configuration not stated), the GI50 with BT-549 breast was 3.79 µM; in the test with DU-145 prostate it was 8.45 µM; with HL-60(TB) leukemia, 3.61 µM; in the test with MOLT-4 leukemia it was 5.91 µM; in the test with NCI-H226 lung it was 17.7 µM; in the test with NCI-H522 lung, 2.51 µM. The values for the GI50 in the test on SNB-75 CNS, with UACC-257 melanoma and in the test on UACC-62 melanoma were 1.39 µM, 14.6 µM and 2.17 µM, respectively. Also, the TGI in the test with BT-549 breast amounted to 18.9 µM; in the test on DU-145 prostate, 34.4 µM; in the test on HL-60(TB) leukemia, 13.3 µM; in the test on MOLT-4 leukemia, 41.9 µM; in the test with NCI-H226 lung it was 55.7 µM; with NCI-H522 lung, 13 µM. The TGI worked out at 7.55 µM in the test with SNB-75 CNS, 41.1 µM in the test on UACC-257 melanoma and 18.9 µM with UACC-62 melanoma.

On to `Cc1ccc(S(=NS(=O)(=O)c2ccc(C)cc2)c2ccc(C)cc2)cc1`, for which the TGI in the test with BT-549 breast, with DU-145 prostate, in the test on EKVX NSCLC, in the test on HL-60(TB) leukemia, in the test on NCI-H226 lung and in the test on UACC-257 melanoma was greater than 100 µM each time.

`C/C(=N/O)c1ccc(Nc2cc(-n3ccnc3)c3ccccc3n2)cc1`: the GI50 was 16.8 µM in the test on BT-549 breast; 38.1 µM in the test on DU-145 prostate; 22 µM in the test with EKVX NSCLC; 2.95 µM in the test on MOLT-4 leukemia; 30 µM with NCI-H226 lung; 35.8 µM in the test on NCI-H522 lung. The values for the GI50 with SNB-75 CNS, in the test with UACC-257 melanoma and in the test on UACC-62 melanoma were 7.04 µM, 3.77 µM and 27.8 µM, respectively. For the same molecule, the TGI with BT-549 breast was 84.7 µM; with DU-145 prostate, greater than 100 µM; in the test with EKVX NSCLC, greater than 100 µM; in the test on MOLT-4 leukemia, 18.5 µM; with NCI-H226 lung, 89 µM; in the test on NCI-H522 lung, greater than 100 µM. Besides, the TGI in the test with SNB-75 CNS was 73.5 µM; in the test on UACC-257 melanoma, 9.35 µM; with UACC-62 melanoma, greater than 100 µM.

Regarding `NC(=O)c1ccc(N(C(N)=O)c2c(F)cccc2F)nc1-c1ccc(F)cc1F`, the GI50 in the test with BT-549 breast, in the test on DU-145 prostate, in the test on HL-60(TB) leukemia, with MOLT-4 leukemia, in the test with NCI-H226 lung and in the test with NCI-H522 lung was greater than 100 µM in each case. In addition, the GI50 in the test on SNB-75 CNS, in the test on UACC-257 melanoma and with UACC-62 melanoma was greater than 100 µM each time. Besides, the TGI with BT-549 breast, with DU-145 prostate, in the test on HL-60(TB) leukemia, with MOLT-4 leukemia, with NCI-H226 lung and in the test with NCI-H522 lung was greater than 100 µM in each case. Moreover, the TGI in the test on SNB-75 CNS, in the test on UACC-257 melanoma and in the test on UACC-62 melanoma was greater than 100 µM each time.

Take `CCN(CC)Cc1cc(Nc2c3ccccc3nc3cc(Cl)ccc23)ccc1O`: the GI50 in the test with BT-549 breast is 1.95 µM; in the test with DU-145 prostate, 2.63 µM; with EKVX NSCLC, 2.26 µM; in the test with MOLT-4 leukemia, 2.01 µM; in the test with NCI-H226 lung, 1.66 µM; with NCI-H522 lung, 1.12 µM. The GI50 with SNB-75 CNS is 1.6 µM; in the test on UACC-257 melanoma, 1.9 µM; in the test on UACC-62 melanoma it was 2.1 µM. In addition, the TGI is 3.48 µM with BT-549 breast; 9.69 µM in the test on DU-145 prostate; 5.99 µM in the test with EKVX NSCLC; 53.5 µM in the test with MOLT-4 leukemia; 3.23 µM in the test with NCI-H226 lung; 2.56 µM in the test on NCI-H522 lung. The TGI with SNB-75 CNS stood at 2.97 µM; in the test with UACC-257 melanoma it was 3.41 µM; in the test on UACC-62 melanoma, 4 µM.

Take `CC(C(N)=O)N(C)C(=O)c1cnc2ccccc2c1` (configuration not stated): the TGI in the test on BT-549 breast, with DU-145 prostate, in the test with HL-60(TB) leukemia, in the test on MOLT-4 leukemia, in the test with NCI-H226 lung and in the test with NCI-H522 lung was greater than 100 µM each time. Besides, the TGI with SNB-75 CNS, in the test on UACC-257 melanoma and in the test on UACC-62 melanoma was greater than 100 µM in each case.

Consider `Cc1ccc(-c2n[nH]c(=O)c3noc(-c4ccc(C)cc4)c23)cc1`, for which the GI50 is 1.33 µM in the test with BT-549 breast; 2.82 µM in the test on DU-145 prostate; 0.31 µM with HL-60(TB) leukemia; 1.95 µM in the test on MOLT-4 leukemia; 6.88 µM in the test with NCI-H226 lung; 0.411 µM in the test with NCI-H522 lung. Further, the GI50 with UACC-257 melanoma is 5.87 µM; in the test on UACC-62 melanoma, 0.718 µM. Further, the TGI with BT-549 breast is 12.8 µM; in the test on DU-145 prostate, 15.2 µM; in the test with HL-60(TB) leukemia it was greater than 100 µM; in the test on MOLT-4 leukemia it was greater than 100 µM; with NCI-H226 lung it was greater than 100 µM; in the test with NCI-H522 lung, 4.98 µM. The TGI in the test with UACC-257 melanoma is greater than 100 µM; in the test on UACC-62 melanoma it was 56.5 µM.

Regarding `Cc1cc2nc(-c3c(F)cccc3Cl)n(Cc3c(F)cccc3Cl)c2cc1C`, the GI50 was 18.5 µM with BT-549 breast; 16.1 µM in the test on DU-145 prostate; 30.4 µM with MOLT-4 leukemia; 15 µM with NCI-H226 lung; 20.3 µM in the test on NCI-H522 lung; 45.5 µM in the test with SNB-75 CNS. The GI50 was 16.4 µM with UACC-257 melanoma and 6.41 µM in the test with UACC-62 melanoma. Also, the TGI with BT-549 breast is 46.2 µM; with DU-145 prostate, 41.4 µM; in the test on MOLT-4 leukemia, greater than 100 µM; in the test on NCI-H226 lung, 38.3 µM; in the test on NCI-H522 lung, 48.9 µM; in the test with SNB-75 CNS, greater than 100 µM. The TGI in the test with UACC-257 melanoma is 38.3 µM; with UACC-62 melanoma, 19.3 µM.

As for `Cn1cc(C2=C(c3cn(CCCCC(=N)N)c4ccccc34)C(=O)NC2=O)c2ccccc21`, the GI50 with BT-549 breast was greater than 25 µM; in the test on DU-145 prostate, greater than 25 µM; with HL-60(TB) leukemia it was 16.7 µM; with MOLT-4 leukemia it was 22.1 µM; with NCI-H226 lung, greater than 25 µM; in the test with NCI-H522 lung it was 18.6 µM. Also, the values for the GI50 in the test on SNB-75 CNS, with UACC-257 melanoma and in the test on UACC-62 melanoma were 1.65 µM, greater than 25 µM and greater than 25 µM, respectively. Further, the TGI with BT-549 breast, in the test on DU-145 prostate, in the test on HL-60(TB) leukemia, with MOLT-4 leukemia, in the test on NCI-H226 lung and in the test with NCI-H522 lung was greater than 25 µM throughout. The TGI in the test with SNB-75 CNS, in the test on UACC-257 melanoma and with UACC-62 melanoma was greater than 25 µM throughout.
